According to patent publication US9221875B2, “Amphiphilic peptides for treatment of keratitis” (Agency for Science, Technology and Research, priority 2013, dated 2015):
≈ marks a conversion by molar mass, not a printed value. Like-named read-outs stand apart in the source and are kept apart here. Marks after values point to notes of the source that are not given here. Square brackets hold non-standard residues; d marks the D form. Peptide text beside a SMILES is read from it.

Columns and labels:
P. aeruginosa [1] = details: 18 h
C. albicans [2] = details: 42 h
S. epidermidis [3] = details: 18 h
[4] = system: 5 microorganisms tested (S. epidermidis, S. aureus, E. coli, P. aeruginosa, C. albicans); experiment: Mean MIC over the panel and selectivity index (Example 1); type: cell-based
Protocol: Red blood cells suspension incubated with PBS was used as negative control.

S. aureus [5] = details: 18 h
E. coli [6] = details: 18 h
S. epidermidis [7] = details: 18 h; remark: listed apart in the source
rabbit red blood cells = type: cell-based; details: red cells of rabbit, 1 h
C. albicans [8] = system: C. albicans
S. aureus [9] = details: 18 h; remark: listed apart in the source
E. coli [10] = details: 18 h; remark: listed apart in the source
P. aeruginosa [11] = details: 18 h; remark: listed apart in the source
[12] = system: 5 microorganisms tested (S. epidermidis, S. aureus, E. coli, P. aeruginosa, C. albicans); experiment: Mean MIC over the panel and selectivity index (Example 2)
[13] = system: clinically isolated Mycobacterium tuberculosis
C. albicans keratitis = experiment: Contact lens-associated C. albicans keratitis mouse model
mice = details: reported values; cited from earlier work
E. coli [14] = type: cell-based, Escherichia coli
[15] = topical eye drops, peptides 3000 mg/L, amphotericin B 1000 mg/L

Compound	MIC P. aeruginosa (P. aeruginosa [1]) [µg/mL]	MIC C. albicans (C. albicans [2]) [µg/mL]	MIC S. epidermidis (S. epidermidis [3]) [µg/mL]	GM, geometric mean of MIC values for the 5 microorganisms tested [4] [µg/mL]	MIC S. aureus (S. aureus [5]) [µg/mL]	MIC E. coli (E. coli [6]) [µg/mL]	MIC C. albicans (C. albicans [8]) [µg/mL]	MIC S. aureus (S. aureus [9]) [µg/mL]	MIC E. coli (E. coli [10]) [µg/mL]	MIC P aeruginosa (P. aeruginosa [11]) [µg/mL]	other results
N=C(N)NCCC[C@H](NC(=O)[C@H](Cc1ccccc1)NC(=O)[C@H](CCCCN)NC(=O)[C@H](Cc1ccccc1)NC(=O)[C@H](CCCNC(=N)N)NC(=O)[C@@H](N)Cc1ccccc1)C(=O)N[C@@H](Cc1ccccc1)C(=O)N[C@@H](CCCCN)C(N)=O [(FRFK)2-NH2] (H-FRFKFRFK-NH2; N-terminus assumed)	62.5 (≈ 53.2 µM)	62.5 (≈ 53.2 µM)	7.8 (≈ 6.64 µM)	79.7	250 (≈ 213 µM)	15.6 (≈ 13.3 µM)					
CC[C@H](C)[C@H](N)C(=O)N[C@@H](CCCNC(=N)N)C(=O)N[C@H](C(=O)N[C@@H](CCCNC(=N)N)C(=O)N[C@H](C(=O)N[C@@H](CCCNC(=N)N)C(=O)N[C@H](C(=O)N[C@@H](CCCNC(=N)N)C(N)=O)[C@@H](C)CC)[C@@H](C)CC)[C@@H](C)CC [(IRIR)2-NH2] (H-IRIRIRIR-NH2; N-terminus assumed)	7.8 (≈ 7.13 µM)	15.6 (≈ 14.3 µM)	3.9 (≈ 3.56 µM)	13.3	31.3 (≈ 28.6 µM)	7.8 (≈ 7.13 µM)					
CC[C@H](C)[C@H](N)C(=O)N[C@@H](CCCNC(=N)N)C(=O)N[C@H](C(=O)N[C@@H](CCCCN)C(=O)N[C@H](C(=O)N[C@@H](CCCNC(=N)N)C(=O)N[C@H](C(=O)N[C@@H](CCCCN)C(N)=O)C(C)C)[C@@H](C)CC)C(C)C [(IRVK)2-NH2] (H-IRVKIRVK-NH2; N-terminus assumed)	62.5 (≈ 61.9 µM)	7.8 (≈ 7.72 µM)	7.8 (≈ 7.72 µM)	78.1	250 (≈ 247 µM)	62.5 (≈ 61.9 µM)					
CC(C)[C@H](N)C(=O)N[C@@H](CCCNC(=N)N)C(=O)N[C@H](C(=O)N[C@@H](CCCCN)C(=O)N[C@H](C(=O)N[C@@H](CCCNC(=N)N)C(=O)N[C@H](C(=O)N[C@@H](CCCCN)C(N)=O)C(C)C)C(C)C)C(C)C [(VRVK)2-NH2] (H-VRVKVRVK-NH2; N-terminus assumed)	>500	15.6 (≈ 15.9 µM)	62.5 (≈ 63.6 µM)		>500	250 (≈ 255 µM)					
N=C(N)NCCC[C@H](NC(=O)[C@H](Cc1c[nH]c2ccccc12)NC(=O)[C@H](CCCCN)NC(=O)[C@H](Cc1c[nH]c2ccccc12)NC(=O)[C@H](CCCNC(=N)N)NC(=O)[C@@H](N)Cc1c[nH]c2ccccc12)C(=O)N[C@@H](Cc1c[nH]c2ccccc12)C(=O)N[C@@H](CCCCN)C(N)=O [(WRWK)2-NH2] (H-WRWKWRWK-NH2; N-terminus assumed)	125 (≈ 93.9 µM)	250 (≈ 188 µM)	7.8 (≈ 5.86 µM)	92.2	62.5 (≈ 47 µM)	15.6 (≈ 11.7 µM)					
CC[C@@H](C)[C@@H](N)C(=O)N[C@@H](C(=O)N[C@H](CCCNC(=N)N)C(=O)N[C@H](CCCCN)C(=O)N[C@@H](C(=O)N[C@@H](C(=O)N[C@H](CCCNC(=N)N)C(=O)N[C@H](CCCCN)C(N)=O)[C@H](C)CC)[C@H](C)CC)[C@H](C)CC [Control-all D, iirkiirk-NH2] (H-[dI][dI][dR][dK][dI][dI][dR][dK]-NH2; N-terminus assumed)							250 (≈ 241 µM)	>500	>500	>500	MIC S. epidermidis (S. epidermidis [7]): >500 µg/mL; HC10, haemolysis concentration 10%: lowest peptide concentration that induces ≧10% haemolysis (rabbit red blood cells): >2000 mg/L
CC[C@@H](C)[C@@H](N)C(=O)N[C@H](CCCNC(=N)N)C(=O)N[C@@H](C(=O)N[C@H](CCCCN)C(=O)N[C@@H](C(=O)N[C@H](CCCNC(=N)N)C(N)=O)[C@H](C)CC)[C@H](C)CC [IK6-all D, irikir-NH2] (H-[dI][dR][dI][dK][dI][dR]-NH2; N-terminus assumed)							15.6 (≈ 19.6 µM)	250 (≈ 314 µM)	62.5 (≈ 78.4 µM)	125 (≈ 157 µM)	GM, geometric mean of MIC values for the 5 microorganisms tested [12]: 113.3 µg/mL
CC[C@H](C)[C@H](N)C(=O)N[C@@H](CCCNC(=N)N)C(=O)N[C@H](C(=O)N[C@H](CCCCN)C(=O)N[C@H](C(=O)N[C@H](CCCNC(=N)N)C(=O)N[C@H](C(=O)N[C@@H](CCCCN)C(N)=O)[C@@H](C)CC)[C@@H](C)CC)[C@@H](C)CC [IK8-2D, IRIkIrIK-NH2] (H-IRI[dK]I[dR]IK-NH2; N-terminus assumed)							3.9 (≈ 3.76 µM)	31.3 (≈ 30.1 µM)	15.6 (≈ 15 µM)	7.8 (≈ 7.51 µM)	MIC S. epidermidis (S. epidermidis [7]): 3.9 µg/mL (≈ 3.76 µM); HC10, haemolysis concentration 10%: lowest peptide concentration that induces ≧10% haemolysis (rabbit red blood cells): 1600 mg/L; GM, geometric mean of MIC values for the 5 microorganisms tested [12]: 12.5 µg/mL; MIC M. tuberculosis ([13]; strain number 1173): 62.5 µg/mL (≈ 60.2 µM); MIC M. tuberculosis ([13]; strain number 1177): 62.5 µg/mL (≈ 60.2 µM); MIC M. tuberculosis ([13]; strain number 1178): 62.5 µg/mL (≈ 60.2 µM); MIC M. tuberculosis ([13]; strain number 1179): 125 µg/mL (≈ 120 µM)
CC[C@@H](C)[C@@H](N)C(=O)N[C@H](CCCNC(=N)N)C(=O)N[C@@H](C(=O)N[C@H](CCCCN)C(=O)N[C@@H](C(=O)N[C@H](CCCNC(=N)N)C(=O)N[C@@H](C(=O)N[C@H](CCCCN)C(=O)N[C@@H](C(=O)N[C@H](CCCNC(=N)N)C(=O)N[C@@H](C(=O)N[C@H](CCCCN)C(N)=O)C(C)C)[C@H](C)CC)C(C)C)[C@H](C)CC)C(C)C [IK12-all D, irvkirvkirvk-NH2] (H-[dI][dR][dV][dK][dI][dR][dV][dK][dI][dR][dV][dK]-NH2; N-terminus assumed)							31.3 (≈ 20.8 µM)	7.8 (≈ 5.18 µM)	7.8 (≈ 5.18 µM)	15.6 (≈ 10.4 µM)	MIC S. epidermidis (S. epidermidis [7]): 1.0 µg/mL (≈ 0.664 µM); HC10, haemolysis concentration 10%: lowest peptide concentration that induces ≧10% haemolysis (rabbit red blood cells): >125^e) mg L^−1; GM, geometric mean of MIC values for the 5 microorganisms tested [12]: 12.7 µg/mL; fold reduction in MIC values compared with the L-enantiomer ([12]; against the various bacteria): 2-4 fold
C[C@@H]1[C@H](O)[C@@H](C)/C=C/C=C/C=C/C=C/C=C/C=C/C=C/[C@H](O[C@@H]2O[C@H](C)[C@@H](O)[C@H](N)[C@@H]2O)C[C@@H]2O[C@](O)(C[C@@H](O)C[C@@H](O)[C@H](O)CC[C@@H](O)C[C@@H](O)CC(=O)O[C@H]1C)C[C@H](O)[C@H]2C(=O)O [amphotericin B, reference compound]											fungal cells eradicated from the biofilms compared to the untreated control group (C. albicans keratitis; C. albicans counts in mice cornea, agar plating): ~90%; depth of hyphal invasion into the cornea, PAS histology (C. albicans keratitis; [15]): reduced the maximal depth of hyphal invasion; resolution of the keratitis infection (eye appearance) (C. albicans keratitis; [15]): significant resolution of the keratitis infection; clinical scores of mice corneas (slit lamp) (C. albicans keratitis; topical eye drops, peptides 3000 mg/L, amphotericin B 1000 mg/L, P<0.01): significantly lower than that in the control group
Polymyxin B [reference compound]	2.0		15.6	41.4	125	2.0					LD50 reported for comparator (mice): 5.4 mg/kg; MIC C. albicans (C. albicans [2]; room temperature): 62.5 µg/mL
gentamicin sulfate											MICn/MIC0 (E. coli [14]; passage 2): 2; MICn/MIC0 (E. coli [14]; passage 6): 4
gramicidin											LD50 reported for comparator (mice): 1.5 mg/kg
